Where two headings read alike, the source gives them in different places.
Experiments:
[1] = test system: AsPC-1; experiment: Proliferation assay (CellTiter Glo), AsPC-1; format: cell-based; conditions: for Top inhibition %: 96 hours
Description: (§1) Briefly, cells at a density of 1,000-10,000 cells/well were seeded in 96-well plates and incubated at 37′C for 24 hours. A series of 9 different concentrations of compound stocks (500×) were created by 3-fold serial dilution in DMSO. These compounds were further diluted in culture media and then added to cells so that the final DMSO concentration was 0.2%. After 96 hours of incubation, 50 μL of CellTiter Glo reagent (Promega) was added to each well and luminescence was measured after 10 minutes using EnVision (PerkinElmer). […] The dose range for most compounds was 4.6 nM-30 μM. The dose ranges for some compounds were adjusted downward to 0.46 nM-3 μM or 0.08 nM-0.5 μM or 0.03 nM-0.2 μM. Luminescence from cells treated with […] alone was set as Max and % of inhibition was calculated as follows: Inhibition %=(Max-Sample value)/Max*100. Data was analyzed using XL-fit software (ID Business Solutions Ltd.) and EC50, relative EC50, and % of top inhibition were calculated. The results are shown in Tables 3-6 for pancreatic cancer, lung cancer, colon/gastric cancer, and leukemia cell lines.

[2] = test system: H727; experiment: Proliferation assay (CellTiter Glo), H727; format: cell-based; conditions: for Top inhibition %: 96 hours
Description: as §1

[3] = test system: SW900; experiment: Proliferation assay (CellTiter Glo), SW900; format: cell-based; conditions: SW900 (K-ras: G12V)
Description: as §1, with “calculated.” for “calculated. The results are shown in Tables 3-6 for pancreatic cancer, lung cancer, colon/gastric cancer, and leukemia cell lines.”
(§2) Other cancer cell lines having wild-type K-ras status and K-ras mutation at G12 were also screened using the PKC activator compounds. […] K-104 was tested in a range of 0.03 nM-0.2 μM. […] The dose ranges were adjusted downward to 0.46 nM-3 μM for K-102 and 0.08 nM-0.5 μM for K-103 for some cell lines.

[4] = test system: HCT116; experiment: Proliferation assay (CellTiter Glo), HCT116; format: cell-based; conditions: for Top inhibition %: 96 hours
Description: as §1

[5] = test system: A549; experiment: Proliferation assay (CellTiter Glo), A549; format: cell-based; conditions: for Top inhibition %: 96 hours
Description: as §1

[6] = test system: Colo205; experiment: Proliferation assay (CellTiter Glo), Colo205; format: cell-based; conditions: Colo205 (WT K-ras)
Description: as §1, with “calculated.” for “calculated. The results are shown in Tables 3-6 for pancreatic cancer, lung cancer, colon/gastric cancer, and leukemia cell lines.”
as §2

[7] = test system: H1915; experiment: Proliferation assay (CellTiter Glo), H1915; format: cell-based; conditions: H1915 (WT K-ras)
Description: as §1, with “calculated.” for “calculated. The results are shown in Tables 3-6 for pancreatic cancer, lung cancer, colon/gastric cancer, and leukemia cell lines.”
as §2

[8] = test system: Panc2.13; experiment: Proliferation assay (CellTiter Glo), Panc2.13; format: cell-based; conditions: for Top inhibition %: 96 hours
Description: as §1

[9] = test system: Capan-1; experiment: Proliferation assay (CellTiter Glo), Capan-1; format: cell-based; conditions: for Top inhibition %: 96 hours
Description: as §1

[10] = test system: KP-4; experiment: Proliferation assay (CellTiter Glo), KP-4; format: cell-based; conditions: for Top inhibition %: 96 hours
Description: as §1

[11] = test system: HT29; experiment: Proliferation assay (CellTiter Glo), HT29; format: cell-based; conditions: HT29 (WT K-ras)
Description: as §1, with “calculated.” for “calculated. The results are shown in Tables 3-6 for pancreatic cancer, lung cancer, colon/gastric cancer, and leukemia cell lines.”
as §2

[12] = test system: AGS; experiment: Proliferation assay (CellTiter Glo), AGS; format: cell-based; conditions: for Top inhibition %: 96 hours
Description: as §1

[13] = test system: MH22A; experiment: Anti-cell proliferative effects, MH22A; format: cell-based, mouse
[14] = test system: PKC isoforms in Panc2.13 cells; experiment: Time course of activation of PKC isoforms in Panc2.13; format: cell-based; conditions: extended periods (16 h and 24 h)
Description: Cells of pancreatic cancer cell line Panc2.13 were seeded as described above, and the cell confluence was between 40-80% the next day. […] Phosphorylation at multiple PKC isoforms, such as Ser744/748 or Ser916 for PKCμ, phosphorylation at Thr638/641 for PKCα/β, phosphorylation at Ser660 for PKCβII (pan-PKC), phosphorylation at Ser643/676 for PKCδ/θ, and phosphorylation at Thr505 for PKCδ, were detected.

[15] = test system: PKCμ and PKCδ in Namalwa, Mino, Raji, Daudi; experiment: Activation of PKC isoforms in four lymphoma cell lines, Western blot; format: cell-based
Description: Western blot analysis was performed as described in Example 2 and 4.

[16] = test system: PKCδ, PKCμ, c-Raf in xMiaPaCa-2, MiaPaCa-2, Panc6.03, Panc1; experiment: Activation of PKC isoforms in pancreatic cancer cell lines, Western blot; format: cell-based
[17] = test system: PKCδ, PKCμ, c-Raf in MH22A; experiment: Activation of PKC isoforms in hepatoma cell line MH22A, Western blot; format: cell-based, mouse
[18] = test system: lymphoma cell lines; experiment: Proliferation assay, 9 lymphoma cell lines; format: cell-based; conditions: for IC50: among the sensitive lymphoma cell lines, read-out: IC50 ranges
Description: PKC activators were tested in 9 lymphoma cell lines (Table 10). Proliferation assays were performed as described in Example 1.

[19] = test system: K-Ras mutant pancreatic, lung, and colon cancer cell lines, leukemia cell lines; experiment: Proliferation assays, panel of cancer cell lines (summary statements); format: cell-based
Description: as §1

[20] = absolute EC50, 96 hours, read-out: Ab EC50
[21] = relative EC50, 96 hours, read-out: Re EC50
[22] = Homo sapiens, absolute EC50, 96 hours, read-out: Ab EC50
[23] = Homo sapiens, relative EC50, 96 hours, read-out: Re EC50
[24] = 9 lymphoma cell lines of Table 10

Work on CC(=O)OCC1=C[C@H]2[C@@H]3C(C)(C)[C@]3(OC(C)=O)C[C@@H](C)[C@]2(O)C2C=C(C)C(=O)[C@@]2(O)C1 (some centres unmarked) [Compound K-101E] yielded a Top inhibition % [1] of 35.2%, an EC50 [1, 20] of over 30000 nM and an EC50 [1, 21] of 2780 nM. For the same compound, the Top inhibition % [2] was 49.1%, the EC50 [2, 20] was over 30000 nM and the EC50 [2, 21] was 620 nM. For the same compound, the “Top inhibition %” value [3] was 25.4%, the Top inhibition % [4] was 27.4% and the EC50 [4, 20] was over 30000 nM. It also gave an EC50 [4, 21] of 6640 nM, a Top inhibition % [5] of 78.7% and an EC50 [5, 20] of 2640 nM. For the same compound, the EC50 [5, 21] was 1560 nM, the “Top inhibition %” value [6] was 85.8% and the “Top inhibition %” value [7] was 35.6%. For the same compound, the Top inhibition % [8] was 49.8%, the EC50 [8, 20] was over 30000 nM and the EC50 [8, 21] was 44 nM. It also gave a Top inhibition % [9] of 44.6%, an EC50 [9, 20] of over 30000 nM and an EC50 [9, 21] of 830 nM. It also gave a Top inhibition % [10] of 69.1%, an EC50 [10, 20] of 1280 nM and an EC50 [10, 21] of 680 nM. For the same compound, the “Top inhibition %” value [11] was 31.7%, the Top inhibition % [12] was 25.9% and the EC50 [12, 20] was over 30000 nM. The EC50 [12, 21] was 4380 nM.

For CC(=O)O[C@@]12C[C@@H](C)[C@]3(O)C4C=C(C)C(=O)[C@@]4(O)CC(CO)=C[C@H]3[C@@H]1C2(C)C (some centres unmarked) [Compound K-101A, Prostratin], the Top inhibition % [1] was 32.4%, the EC50 ([1]; Homo sapiens, ASPC1, absolute EC50, 96 hours, read-out: Ab EC50) was over 30000 nM and the EC50 ([1]; Homo sapiens, ASPC1, relative EC50, 96 hours, read-out: Re EC50) was 270 nM. The “sensitivity to anti-cell proliferative effects” value [13] was “insensitive”, the Top inhibition % [2] was 48.3% and the EC50 ([2]; Homo sapiens, NCI-H727, absolute EC50, 96 hours, read-out: Ab EC50) was over 30000 nM. For the same compound, the EC50 ([2]; Homo sapiens, NCI-H727, relative EC50, 96 hours, read-out: Re EC50) was 190 nM, the “reducing the phosphorylation at Ser643/676 of PKCδ/θ” value ([14]; K101A 1 μM versus K102, K103) was “more potent” and the “phosphorylation of PKCμ at Ser744/748 and Ser916 and PKCδ at Thr505” value [15] was “induced in all cell lines”. For the same compound, the “proportion of phosphorylated PKCμ at Ser916/total PKCμ” value [15] was “much greater in two sensitive cell lines”, the “Top inhibition %” value [3] was 7.1% and the Top inhibition % [4] was 17.4%. It also gave an EC50 ([4]; Homo sapiens, HCT-116, absolute EC50, 96 hours, read-out: Ab EC50) of over 30000 nM, a Top inhibition % [5] of 76.0% and an EC50 [5, 22] of 490 nM. The EC50 [5, 23] was 270 nM, the “Top inhibition %” value [6] was 83.6% and the “Top inhibition %” value [7] was 27.7%. For the same compound, the “phosphorylation of c-Raf at Ser338” value [16] was “induced phosphorylation”, the “phosphorylations of PKCδ at Thr505 and PKCμ at Ser744/748” value [16] was “increased” and the Top inhibition % [8] was 43.4%. For the same compound, the EC50 [8, 20] was over 30000 nM, the EC50 [8, 21] was 17 nM and the “phosphorylation of PKCδ at Thr505, PKCμ at Ser744/748, PKCμ at Ser916, c-Raf at Ser338” value [17] was “did not induce further phosphorylation”. For the same compound, the “sensitivity of lymphoma cell lines” value [18, 24] was “Seven lymphoma cell lines were very sensitive”, the “sensitivity of lymphoma cell lines” value ([18]; Daudi and Raji) was “not sensitive” and the IC50 [18] was 77 to 284 nM. The Top inhibition % [9] was 37.1%, the EC50 [9, 22] was over 30000 nM and the EC50 [9, 23] was 310 nM. The Top inhibition % [10] was 63.3%, the EC50 [10, 22] was 400 nM and the EC50 [10, 23] was 190 nM. The “Top inhibition %” value [11] was 12.8%, the Top inhibition % [12] was 21.7% and the EC50 [12, 22] was over 30000 nM. The EC50 [12, 23] was 490 nM.

With C/C=C(/C)C(=O)O[C@H]1C(C)=C[C@]23C(=O)[C@@H](C=C(CO)[C@@H](O)[C@]12O)[C@H]1[C@@H](C[C@H]3C)C1(C)C [Compound K-102, Ingenol-3-angelate, reference compound] the “sensitivity to anti-cell proliferative effects” value [13] was “insensitive”, the “reducing the phosphorylation at βII Ser660 of PKC (pan), to a lesser extent Thr638/641 of PKCα/β” value ([14]; K102 0.1 μM, K103 0.01 μM versus K101A) was “more potent” and the “potency in proliferation inhibition relative to prostratin” value [19] was “more potent in proliferation inhibition”. For the same compound, the “phosphorylations of PKCδ at Thr505 and PKCμ at Ser744/748” value ([16]; all four pancreatic cell lines, K101A 1 μM, K102 0.1 μM) was “increased”, the “phosphorylation of c-Raf at Ser338” value ([16]; pancreatic cell lines, K101A 1 μM, K102 0.1 μM) was “induced phosphorylation” and the “phosphorylation of PKCδ at Thr505, PKCμ at Ser744/748, PKCμ at Ser916, c-Raf at Ser338” value ([17]; MH22A, basal levels high, K101A 1 μM, K102 0.1 μM) was “did not induce further phosphorylation”. For the same compound, the “sensitivity of lymphoma cell lines” value [18, 24] was “Seven lymphoma cell lines were very sensitive”, the “sensitivity of lymphoma cell lines” value ([18]; Daudi and Raji) was “not sensitive” and the IC50 [18] was 0.8 to 5 nM.
